Experimental data published in US20030187003A1, “Pharmaceutical compositions and method for the treatment of retroviral infections” (priority 2000, published 2003).
Where two headings read alike, the source gives them in different places.

Experiments:
[1] = target: IN (Human immunodeficiency virus type 1 group M subtype B, UniProt P04585); settings: background section; read-out: IC50 inhibition of IN; cited from earlier work
[2] = system: HIV-1-derived vectors pseudotyped with the VSV-G envelope; experiment: microbe, parasite or virus in culture; assay type: cell-based; settings: Human immunodeficiency virus 1, HEK-293T, read-out: EC50 inhibition of lentiviral transduction
[3] = system: SIV (MAC251); experiment: inhibition of virus-induced cytopathicity in MT-4 cells, SIV (MAC251); assay type: cell-based, Simian immunodeficiency virus; settings: for EC50: Simian immunodeficiency virus, MT4, 120 h, read-out: EC50 SIV MAC251
[4] = system: HIV-1 L1; experiment: inhibition of virus-induced cytopathicity in MT-4 cells, HIV-1 clinical isolate L1; assay type: cell-based; settings: Human immunodeficiency virus 1, MT4, 120 h, read-out: EC50 HIV-1 L1
[5] = target: T1, recombinant His-tagged HIV-1 integrase (Human immunodeficiency virus type 1 group M subtype B, UniProt P04585); experiment: HIV-1 integrase overall integration assay, oligonucleotide-based; settings: for inhibition of the overall integration reaction: in words
Experimental: (§1) Reactions were started by the addition of the enzyme. Inhibitors were incubated shortly with the reaction components before the addition of integrase. Reactions were allowed to proceed at 37° C. for 7 minutes and stopped by the addition of formamide loading buffer (95% formamide, 30 mM ethylenediamine tetraacetic acid, 0.1% xylene cyanol, 0.1% bromophenol blue, 0.1% sodium dilaurylsulfate SDS). In the overall integration assay, this reaction was allowed to proceed for 60 minutes before the addition of a formamide dye.

[6] = target: T1, recombinant His-tagged HIV-1 integrase; experiment: HIV-1 integrase 3′-processing assay, oligonucleotide-based; settings: for inhibition of the 3-processing reaction: in words
Experimental: as §1

[7] = system: HIV-2 (ROD); experiment: inhibition of virus-induced cytopathicity in MT-4 cells, HIV-2 (ROD); assay type: cell-based; settings: for EC50: Human immunodeficiency virus 2, MT4, 120 h, read-out: EC50 HIV-2 ROD
[8] = system: HIV-2 (EHO); experiment: inhibition of virus-induced cytopathicity in MT-4 cells, HIV-2 (EHO); assay type: cell-based; settings: for EC50: Human immunodeficiency virus 2, MT4, 120 h, read-out: EC50 HIV-2 EHO
[9] = cytotoxicity, viability of mock-infected cells; assay type: cell-based; settings: human, viability of mock-infected MT-4 cells
Experimental: Cytotoxicity of these compounds was determined in parallel by measuring the viability of mock-infected MT-4 or C8166 cells 5 days post-infection. The antiviral activity and cytotoxicity data, including average values and standard deviations for at least two separate experiments, are depicted in Table 2, wherein: CC50 represents the 50% cytotoxic concentration, i.e. the concentration that reduces by 50% the viability of MT-4 cells.

[10] = system: HIV-1(IIIB); experiment: inhibition of virus-induced cytopathicity in MT-4 cells, HIV-1 (IIIB); assay type: cell-based; settings: for EC50: Human immunodeficiency virus 1, IIIB, MT4, 120 h, MT-4 cells, viral cytopathic effect, 5 days post-infection; for activity against the replication of HIV-1(IIIB): in words
[11] = target: T1, recombinant His-tagged HIV-1 integrase; experiment: HIV-1 integrase strand transfer assay, oligonucleotide-based
[12] = target: T2, Recombinant HIV-1 RT (HXB2) (Human immunodeficiency virus type 1 group M subtype B, UniProt P04585); experiment: inhibition of HIV-1 reverse transcriptase enzymatic activity; assay type: biochemical
T2 construct: Recombinant HIV-1 RT (HXB2) was obtained as described by Jonckheere et al; made in house
Excerpt: Poly(rC).oligo(dG) and poly (rA).oligo(dT) were used as template-primers, and 8-[^3H]-dGTP and [^3H]-dTTP were used as radiolabelled substrates.

[13] = system: HIV-1 L2; assay type: cell-based
[14] = system: HIV-1 L4; assay type: cell-based
[15] = system: HIV-1 L6; assay type: cell-based; settings: L6 versus wild type strain L1
[16] = MT-4 cells, viral cytopathic effect, 5 days post-infection
[17] = IC50 Poly(A).oligo(dT), template-primer poly(A).oligo(dT)
[18] = IC50 poly(C).oligo(dG), template-primer poly(C).oligo(dG)

Compound	EC50 [3, 16] [µM]	EC50 [4, 16] [µM]	IC50 [5] [µM]	IC50 [6] [µM]	EC50 [7, 16] [µM]	EC50 [8, 16] [µM]	CC50 at 5 days [9] [µM]	EC50 [10] [µM]	other results
[N-]=[N+]=Nc1cn([C@H]2C[C@H](N=[N+]=[N-])[C@@H](COP(=O)(O)O)O2)c(=O)[nH]c1=O [5-N3-AZUMP, 3′,5-diazido-2′,3′-dideoxyuridine 5′-monophosphate]									IC50 [1]: 150 µM
Cc1cn([C@H]2C[C@H](N=[N+]=[N-])[C@@H](CO)O2)c(=O)[nH]c1=O [AZT, reference compound]									EC50 [2]: 0.049 µM
Oc1nc(O)c2c(n1)Oc1nc(O)nc(O)c1C2c1ccc(I)cc1 [A]	> 276	> 276	> 207	> 207	> 276	> 276	> 276	> 276	
Clc1nc(Cl)c2c(n1)Oc1nc(Cl)nc(Cl)c1C2c1ccccc1 [B]	> 17.5	> 17.5	25 ± 4.5	74 ± 38.5	> 17.5	> 17.5	17.5	> 17.5	
Oc1nc(O)c2c(n1)Oc1nc(O)nc(O)c1C2c1ccccc1 [C]			34.6 ± 11.3	22.4 ± 6.4			> 383	170 ± 45	EC50 [3]: 194 µM; EC50 [4]: 116 ± 30 µM; inhibition of the overall integration reaction [5]: inhibited; inhibition of the 3-processing reaction [6]: inhibited; IC50 [11]: 782 ± 242 µM; EC50 [7]: > 383 µM; IC50 [12, 17]: 33.1 ± 15.1 µM; IC50 [12, 18]: 15.1 ± 5.9 µM; EC50 [8]: 169 ± 27 µM; activity against the replication of HIV-1(IIIB) [10]: active
COc1nc(O)nc2c1C(c1ccc([N+](=O)[O-])cc1)c1c(OC)nc(O)nc1O2 [D]	> 313	> 313	> 250	> 250	> 313	> 313	> 313	> 313	
Oc1nc(O)c2c(n1)Oc1nc(O)nc(O)c1C2c1ccc(Br)cc1 [E]			298 ± 7.7	208 ± 82.2			> 309	273 ± 38	EC50 [3]: > 309 µM; EC50 [4]: > 309 µM; inhibition of the overall integration reaction [5]: inhibited; inhibition of the 3-processing reaction [6]: inhibited; IC50 [11]: > 1240 µM; EC50 [7]: > 309 µM; IC50 [12, 17]: > 494 µM; IC50 [12, 18]: > 494 µM; EC50 [8]: > 309 µM; activity against the replication of HIV-1(IIIB) [10]: active
Oc1nc(O)c2c(n1)Oc1nc(O)nc(O)c1C2c1ccc(Cl)cc1 [F]	> 347	> 347	97.1 ± 93.8	144 ± 81.3	> 347	> 347	> 347	> 347	
Oc1nc(S)nc2c1C(c1ccc(Cl)cc1)c1c(O)nc(S)nc1O2 [G]			1 ± 0.4	0.9 ± 0.5			137	56.8 ± 30	EC50 [3]: 100 µM; EC50 [4]: 101 ± 32 µM; EC50 ([13]; Human immunodeficiency virus 1): 95.6 ± 6.5 µM; fold increase in EC50 ([13]; L2 versus wild type strain L1): 0.9; EC50 ([14]; Human immunodeficiency virus 1): 163 ± 3.7 µM; fold increase in EC50 ([14]; L4 versus wild type strain L1): 1.6; inhibition of the overall integration reaction [5]: inhibited; inhibition of the 3-processing reaction [6]: inhibited; IC50 [11]: 201 ± 120 µM; EC50 [7]: > 137 µM; IC50 [12, 17]: 35.2 ± 0.4 µM; IC50 [12, 18]: 25.8 ± 15.9 µM; EC50 [8]: > 137 µM; fold increase in EC50 [15]: 1.8; activity against the replication of HIV-1(IIIB) [10]: active
Cc1ccnc2c1NC(=O)c1cccnc1N2C1CC1 [nevirapine, reference compound]	> 97.6	0.06 ± 0.01			> 97.6	> 97.6	> 97.6	0.04	activity against the replication of SIV (MAC251) ([3]; at 98 μM in MT-4 cells): inactive; activity against the replication of HIV-2 (ROD) ([7]; at 98 μM in MT-4 cells): inactive; activity against the replication of HIV-2 (EHO) ([8]; at 98 μM in MT-4 cells): inactive
Dextran sulfate [reference compound]									IC50 ([12]; template-primer poly(A).oligo(dT), read-out: IC50 Poly(A).oligo(dT)): 22 ± 8.8 µM; IC50 ([12]; template-primer poly(C).oligo(dG), read-out: IC50 poly(C).oligo(dG)): 7.3 ± 3.2 µM
